The results in this text go back to US4962113A, “Pyridinium derivatives, their production and use” (Takeda Chemical Industries, Ltd, priority 1987, dated 1990).

Read-outs that look alike come from different tables or passages of the source.

Data set [1] relates to PAF-induced bronchoconstriction. The data set is described as follows: PAF inhibitory action in bronchoconstriction. It counts as in vivo, guinea pig (Hartley). Particulars: oral, 30 mg/kg, one hour before PAF (0.3 μg/kg i.v.). Here is the method: Female and male Hartley guinea pigs weighing about 400 g were fixed on the dorsal position under anesthesia with an ethylcarbamate (1.5 g/kg, intraperitoneally). One leg of a cannula (4 legs) was inserted into the trachea, and two of the remaining three legs were connected to an artificial respirator (Harvard apparatus rodent respirator). The remaining one leg (side tube) was connected to a bronchospasm transducer 7020 (Ugobasile).
While the air volume per ventilation was adjusted to 5 to 7 ml and the air ventilation rate was controlled at 70 times/min., with a load pressure to the lung set at 10 cm H2 O, the overflown air volume was recorded on Rectigraph (Rectigraph-8S, San-ei Seiki Inc.) through a transducer. After 1 mg/kg of gallamine triethodide was given intravenously to the animals, histamine dihydrochloride (10 μg/kg) was applied intravenously to examine reaction of the animals. PAF(0.3 μg/kg) was administered intravenously, and, 30 sec. later, maximum bronchoconstriction was observed. Under these conditions, bronchoconstriction activity of the test samples was examined. The test sample was suspended in a 5% gum arabic solution, and given orally one hour before the administration of PAF. The compounds obtained in Production Examples 3 and 4 inhibited PAF-induced bronchoconstriction by oral administration (30 mg/kg).

Data set [2] has as its system platelet aggregation (PAF). The experiment in a line: Inhibitory action on PAF-induced rabbit platelet aggregation. The class given is cell-based. As to conditions: Oryctolagus cuniculus, read-out: inhibitory percentage (platelet aggregation); for inhibition at 3 µM: 3 × 10^-6 M; for inhibition at 0.3 µM: 3 × 10^-7 M; for inhibition at 0.03 µM: 3 × 10^-8 M. An outline of the steps: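 Male rabbit citrated PRP, adjusted with PPP to about 500,000 platelets/μl, was stirred 2 min at 37 °C, then with test sample for 2 min before PAF addition. Aggregation was followed by aggregometry as maximum percent light transmission.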

Another data set is described as follows: Acute Toxicity Test. It counts as in vivo. Particulars: oral, 1000 mg/kg, until after one week. Here is the method:
Male Jcl-ICR mice (5 wk) were used in groups of five individuals. The animals of the respective groups were orally administered with the compounds (227), (236) and (303) respectively produced in Production Examples 87, 90 and 109 at the dose of 1000 mg/kg.

The next data set relates to PAF-induced hypotension. The data set is described as follows: Inhibitory action on PAF-induced hypotension in rats. It counts as in vivo, rat (Sprague-Dawley). As to conditions: Rattus norvegicus, read-out: Inhibitory Rate (Lowering of Blood Pressure); for inhibition in vivo at 0.01 mg/kg / inhibition in vivo at 0.03 mg/kg / inhibition in vivo at 0.1 mg/kg: iv; for inhibition in vivo at 1 mg/kg / inhibition in vivo at 3 mg/kg: oral. Here is the method:
Sprague-Dawley male rats, each weighing about 250 g, were subjected to the experiment. The rats were cannulated on the side of femoral artery for measuring the blood pressure, and on the side of femoral vein for administering the drug. The blood pressure was measured through a pressure transducer and recorded. First, PAF (1 μg/kg) was administered intravenously (i.v.) to examine the extent of lowering of blood pressure. Then, the test samples were administered intravenously or orally. […]
The inhibitory action on PAF-induced hypotension (% inhibition) is indicated as the ratio of blood pressure-lowering degree (Δ mmHg) induced by PAF after administration of test samples relative to blood pressure-lowering degree (Δ mmHg) induced by PAF before administration of test samples.

In the case of `CCCCCCCCCCCCCCCCCCNC(=O)OCC(COC(=O)NCCN(C(=O)c1cc(Br)c[n+](CC)c1)c1ccccc1)OC` (stereo not drawn) [Production Example 3, 5-bromo-3-[N-[2-(2-methoxy-3-octadecylcarbamoyloxyproxycarbonyl)]aminoethyl-N-phenyl]carbamoyl-1-ethyl pyridinium iodide], the “inhibition of PAF-induced bronchoconstriction” value in data set [1] was determined as 64.9%.

Regarding `CCCCCCCCCCCCOCCOCCOC(=O)NCCN(C(=O)c1cc(Br)c[n+](CC)c1)c1ccccc1` [Production Example 4, 5-bromo-3-[N-[2-[2-(2-dodecyloxyethoxy)ethoxycarbonyl]]aminoethyl-N-phenyl]carbamoyl-1-ethylpyridinium iodide], the “inhibition of PAF-induced bronchoconstriction” value in data set [1] came out at 59.9%. In data set [2], the inhibition at 3 µM is 100%, the inhibition at 0.3 µM stood at 100% and the inhibition at 0.03 µM came out at 100%.

Regarding `CCC[n+]1cc(Br)cc(C(=O)N(CCC(=O)NCCOC(=O)Nc2cccc3ccccc23)c2ccccc2)c1` [Production Example 90, 5-bromo-3-[N-[2-[2-(1-naphthylcarbamoyloxy)ethyl]carbamoyl]ethyl-N-phenyl]carbamoyl-1-propylpyridinium chloride], the death of mice result in “Acute Toxicity Test” is reported as “No death of mice was observed”. In the data set on PAF-induced hypotension (1 hr.), the inhibition in vivo at 0.01 mg/kg worked out at 58%, the inhibition in vivo at 0.03 mg/kg worked out at 83%, the inhibition in vivo at 1 mg/kg stood at 69% and the inhibition in vivo at 3 mg/kg is 96%. In the data set on PAF-induced hypotension (2 hr.), the inhibition in vivo at 0.01 mg/kg is 36%, the inhibition in vivo at 0.03 mg/kg amounted to 64%, the inhibition in vivo at 1 mg/kg is 68% and the inhibition in vivo at 3 mg/kg was 99%. In the data set with PAF-induced hypotension (4 hr.), the inhibition in vivo at 0.01 mg/kg amounted to 17%, the inhibition in vivo at 0.03 mg/kg is 51%, the inhibition in vivo at 1 mg/kg stood at 78% and the inhibition in vivo at 3 mg/kg came to 94%. Moreover, in the data set on PAF-induced hypotension (6 hr.), the inhibition in vivo at 0.01 mg/kg was determined as 10%, the inhibition in vivo at 0.03 mg/kg turned out to be 36%, the inhibition in vivo at 1 mg/kg worked out at 71% and the inhibition in vivo at 3 mg/kg came out at 87%. Moreover, in the data set on PAF-induced hypotension (8 hr.), the inhibition in vivo at 0.01 mg/kg stood at 1%, the inhibition in vivo at 0.03 mg/kg stood at 23%, the inhibition in vivo at 1 mg/kg came to 60% and the inhibition in vivo at 3 mg/kg came out at 81%. Also, in the data set on PAF-induced hypotension (5 min, i.v., 5 min.), the inhibition in vivo at 0.01 mg/kg is 69% and the inhibition in vivo at 0.03 mg/kg came to 100%. Further, in data set [2], the inhibition at 3 µM amounted to 100%, the inhibition at 0.3 µM came to 100% and the inhibition at 0.03 µM worked out at 16%.

Consider `CCC[n+]1cc(Br)cc(C(=O)N(CCC(=O)NCCNS(=O)(=O)c2cccc3ccccc23)c2ccccc2)c1` [Production Example 109, 5-Bromo-3-[N-[2-[2-(1-naphthylsulfonamide)ethyl]carbamoyl]-ethyl-N-phenyl]carbamoyl-1-propylpyridinium chloride], for which the death of mice entry in the data set “Acute Toxicity Test” is recorded as “No death of mice was observed”. For the same compound, the inhibition in vivo at 0.1 mg/kg in the data set on PAF-induced hypotension (1 hr.) was found to be 100%; in the data set with PAF-induced hypotension (2 hr.) it was 97%; in the data set with PAF-induced hypotension (4 hr.) it was 71%; with PAF-induced hypotension (6 hr.), 50%; in the data set with PAF-induced hypotension (8 hr.), 46%; in the data set on PAF-induced hypotension (5 min, i.v., 5 min.), 100%. Besides, the inhibition in vivo at 1 mg/kg in the data set with PAF-induced hypotension (1 hr.) is 56%; in the data set with PAF-induced hypotension (2 hr.) it was 65%; in the data set with PAF-induced hypotension (4 hr.) it was 64%; in the data set on PAF-induced hypotension (6 hr.), 54%; with PAF-induced hypotension (8 hr.) it was 48%. Further, the inhibition in vivo at 3 mg/kg came to 95% in the data set on PAF-induced hypotension (1 hr.); 97% with PAF-induced hypotension (2 hr.); 97% in the data set on PAF-induced hypotension (4 hr.); 92% in the data set with PAF-induced hypotension (6 hr.); 80% in the data set with PAF-induced hypotension (8 hr.). The inhibition at 3 µM in data set [2] came to 100%. The inhibition at 0.3 µM in data set [2] is 100%. In data set [2], the inhibition at 0.03 µM came out at 26%.
